Results as given in patent US20170166555A1, “FUNCTIONALISED AND SUBSTITUTED INDOLES AS ANTI-CANCER AGENTS” (Novogen Limited, priority 2013, published 2017).

How the values were obtained:
[1] = tested on: melanoma (SK-Mel-28) cells; experiment: Cell viability assay (MTT, 48 hr); format: cell-based; details: Homo sapiens, 48 hr treatment, read-out: IC50 (μM) SKMEL28
Protocol: (§1) Cell viability assays were also conducted to assess the anti-proliferative effects of the anti-tropomyosin compounds 4001-4015. Briefly, cells (1×10^3/well) were plated (96-well) and treated (48 hr) with anti-tropomyosin drug and viability measured using 3-(4,5-dimethylthiazol-2-yl)-2,5-diphenylterazolium bromide MTT. Cell viability was normalized to control (vehicle alone) and dose-response curves, and half maximal effective concentration (EC50) values were determined using Graph Pad Prism 5 (nonlinear regression sigmoidal dose-response variable slope).

[2] = tested on: neuroblastoma (SH-EP) cells; experiment: Cell viability assay (MTT, 48 hr); format: cell-based; details: 48 hr treatment, read-out: IC50 (μM) SHEP
Protocol: as §1

A375 melanoma xenograft = A375 melanoma xenograft efficacy study; format: in vivo, Foxn-1 nu/nu athymic mice; details: hydrochloride salt, 20 mg/kg intravenously QD, 15 days
Protocol: FIG. 6: Tumor volumes ±SEM of animals treated with Control (Carbonate vehicle) or compound 4015 (20 mg/kg, I.V., QD).
In vivo efficacy studies for compound 4015 hydrochloride salt were conducted using an A375 melanoma xenograft model in Foxn-1 nu/nu athymic mice. The human melanoma cell line A375 (sourced from American Type Culture Collection (ATCC), USA) was used for developing the flank xenograft model. Briefly, five million cells were injected subcutaneously in the right flank region of the animal. When the tumors reached 130-150 mm^3 the animals were randomized into two groups, each group with 8 animals in them, so that the average tumor volume of all the groups was same.
First group received vehicle (sodium bicarbonate buffer) intravenously once a day (QD). The second group received compound 4015 at 20 mg/kg, intravenously (QD) (Table 7). The volume of dosing to each animal was calculated and adjusted every day based on individual body weight measured prior to dosing.
Animals were treated from the day of randomization (Day 1) for 15 days. Body weight and tumor dimensions (length and diameter) were measured three times in a week including the termination day of the study. Throughout the study period, mice were monitored daily for clinical condition.

[3] = tested on: glioblastoma (U251) cells; experiment: Cell viability, CellTiter 96 AQueous, 72 hours; format: cell-based; details: Homo sapiens, U-251
Protocol: (§2) The anti-proliferative activity of compound 4093 against ovarian cancer (SKOV3) and glioblastoma (U251) cells was also evaluated (Table 6). Briefly, cells were seeded at 2000 cells/well in a 96 well plate. 24 hrs post plating, each cell line was exposed to various concentrations of ATM-4093 (10, 5, 3,1, 0.7, 0.5, 0.3, 0.1 μM) for 72 hours. Cell viability was determined using CellTiter 96 AQueous (Promega) and absorbance measured at 490 nm on the SpectraMax M2 plate reader. Cell viability was normalized to control (vehicle alone) and dose-response curves, and half maximal effective concentration (EC50) values were determined using Graph Pad Prism 6 (nonlinear regression sigmoidal dose-response variable slope).

[4] = tested on: ovarian cancer (SKOV3) cells; experiment: Cell viability, CellTiter 96 AQueous, 72 hours; format: cell-based; details: Homo sapiens, SK-OV-3
Protocol: as §2

[5] = tested on: total actin cytoskeleton in SK-N-SH neuroblastoma cells; experiment: Microfilament disruption assay, 488-Atto-Phallodin imaging and filament quantitation; format: cell-based; details: 0-40 μM, 24 h, FIG. 2
Protocol: (§3) FIG. 2: Imaging and quantitation of actin filaments in SK—N—SH neuroblastoma cells treated with compound (A) 4093 and (B) 4113. Cells were stained with 488-Atto-Phallodin and DAPI to visualize the actin filament bundles and the nucleus, respectively. Shown in the top panel is a representative grey scale immunofluorescent image from control (vehicle alone), 5 μM and 10 μM treated cells. […] The coloured lines indicate the detected actin filaments. Also shown is the quantitation of cell number, filament number/cell and filament number/cell area ([…]). […]
(§4) The ability of compounds 4093 and 4113 to disrupt the total actin cytoskeleton (FIG. 2) and to specifically target Tm5NM1-containing actin filaments (FIG. 3) was assessed in vitro using the microfilament disruption assay.
(§5) Briefly, SK-N-SH neuroblastoma cells were seeded at 1800 cells/well in a 384 Perkin Elmer High Content Imaging “View” plate and left to plate down 24 h prior to treatment. […] Images were then exported and changes in the organization and numbers of actin filaments within the cell were quantitated using a linear feature detection algorithm developed by the CSIRO. […] It is these “ridge lines” that correspond to actin filament bundles and allow us to quantitate the number of filaments per cell.

[6] = tested on: Tm5NM1-containing actin filaments in SK-N-SH neuroblastoma cells; experiment: Microfilament disruption assay, γ9d staining imaging and filament quantitation; format: cell-based; details: 0-40 μM, 24 h, FIG. 3
Protocol: as §3, with “FIG. 3:” for “FIG. 2:”, “with γ9d (sheep polycolonal, 1:100) followed by 488-conjugated secondary (1:1000)” for “with 488-Atto-Phallodin”, “the Tm5NM1 containing” for “the actin”
as §4, §5

Compound | IC50 [1] [µM] | IC50 [2] [µM] | Reduction in tumor growth compared to control (A375 melanoma xenograft) [%] | IC50 [3] [µM] | IC50 [4] [µM] | Disruption of the total actin cytoskeleton [5] | Disruption of Tm5NM1-containing actin filaments [6]
Cc1c(C)n(CCCN(C)C)c2ccc(CN3CCN(CCc4ccccc4)CC3)cc12 [Compound 4015, 3-(2,3-dimethyl-5-((4-phenethylpiperazin-1-yl)methyl)-1H-indol-1-yl)-N,N-dimethylpropan-1-amine] | 6.4 | 4.6 | 26 |  |  |  | 
Cc1c(C)n(CCCN(C)C)c2ccc(Oc3ccc(C(=O)Nc4ccc(F)cc4)cc3)cc12 [Compound 4093, 4-((1-(3-(dimethylamino)propyl)-2,3-dimethyl-1H-indol-5-yl)oxy)-N-(4-fluorophenyl)benzamide] |  |  |  | 0.5 | 0.6 | disrupt both the total actin cytoskeleton and Tm5NM1-containing actin filaments in a dose-dependent manner | disrupt both the total actin cytoskeleton and Tm5NM1-containing actin filaments in a dose-dependent manner
